Assays:
[1] = biological target: T1, Steroid 17-alpha-hydroxylase/17,20 lyase (Homo sapiens, UniProt P05093); experiment: Inhibition of human testicular microsome CYP17; type: ADME, microsomes, Testis
T1 sequence (P05093 whole entry): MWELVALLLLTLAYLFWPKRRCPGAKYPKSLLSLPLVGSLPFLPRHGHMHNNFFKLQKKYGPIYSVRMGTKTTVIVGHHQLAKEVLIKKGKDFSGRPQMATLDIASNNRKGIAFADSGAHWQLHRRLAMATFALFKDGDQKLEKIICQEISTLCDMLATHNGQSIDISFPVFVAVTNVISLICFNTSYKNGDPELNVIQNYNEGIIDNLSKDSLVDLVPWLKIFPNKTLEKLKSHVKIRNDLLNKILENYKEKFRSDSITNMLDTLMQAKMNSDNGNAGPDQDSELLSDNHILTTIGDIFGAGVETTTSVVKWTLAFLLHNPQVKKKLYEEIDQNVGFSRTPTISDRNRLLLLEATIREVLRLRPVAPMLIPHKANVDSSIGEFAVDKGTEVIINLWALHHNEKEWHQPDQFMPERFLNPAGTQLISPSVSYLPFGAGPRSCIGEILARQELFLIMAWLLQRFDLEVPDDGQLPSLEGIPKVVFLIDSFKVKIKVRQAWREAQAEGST

[2] = tested on: Serum; experiment: In vivo inhibition of testosterone in Sprague-Dawley rat assessed as serum testosterone level at 25 mg/kg, po measured after 5 hrs by radioimmuno assay relative to control; type: functional
[3] = biological target: T1, Steroid 17-alpha-hydroxylase/17,20 lyase; experiment: Inhibiton of human CYP17A1 C17, 20 lyase activity expressed in Escherichia coli using [1,2-3H]-17alpha-hydroxyprogesterone as substrate incubated for 15 mins in presence of NADPH generating system; type: ADME
[4] = biological target: T1, Steroid 17-alpha-hydroxylase/17,20 lyase; experiment: Inhibition of human CYP17 C17,20-lyase activity; type: ADME
[5] = biological target: T2, Steroid 17-alpha-hydroxylase/17,20 lyase (Rattus norvegicus, UniProt P11715); experiment: Binding affinity to Sprague-Dawley rat testicular microsome CYP17A1 assessed as inhibition constant; type: ADME, microsomes, Testis
T2 sequence (P11715 whole entry): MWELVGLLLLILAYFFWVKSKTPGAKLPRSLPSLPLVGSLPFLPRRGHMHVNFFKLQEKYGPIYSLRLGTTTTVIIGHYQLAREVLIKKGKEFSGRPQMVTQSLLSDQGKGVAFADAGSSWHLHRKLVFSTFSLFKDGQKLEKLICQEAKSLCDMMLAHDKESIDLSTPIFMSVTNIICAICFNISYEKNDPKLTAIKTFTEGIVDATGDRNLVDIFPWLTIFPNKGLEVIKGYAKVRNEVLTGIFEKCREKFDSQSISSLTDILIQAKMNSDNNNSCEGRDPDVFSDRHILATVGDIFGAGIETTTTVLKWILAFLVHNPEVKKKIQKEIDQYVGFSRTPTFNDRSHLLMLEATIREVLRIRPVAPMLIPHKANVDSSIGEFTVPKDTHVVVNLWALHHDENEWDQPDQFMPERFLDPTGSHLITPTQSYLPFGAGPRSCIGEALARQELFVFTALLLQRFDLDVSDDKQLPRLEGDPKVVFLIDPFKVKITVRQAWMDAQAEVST

[6] = biological target: T2, Steroid 17-alpha-hydroxylase/17,20 lyase; experiment: Inhibition of rat CYP17; type: ADME
[7] = biological target: T1, Steroid 17-alpha-hydroxylase/17,20 lyase; experiment: Inhibition of human testicular CYP17; type: ADME, tissue-based, Testis
[8] = biological target: T2, Steroid 17-alpha-hydroxylase/17,20 lyase; experiment: Inhibition of rat testicular CYP17; type: ADME, tissue-based, Testis
[9] = biological target: T2, Steroid 17-alpha-hydroxylase/17,20 lyase; experiment: Inhibiton of Sprague-Dawley rat testicular microsomal suspension CYP17A1 C17, 20 lyase activity using [1,2-3H]-17alpha-hydroxyprogesterone as substrate incubated for 15 mins in presence of NADPH generating system; type: ADME, microsomes, Testis, Microsome
[10] = biological target: T2, Steroid 17-alpha-hydroxylase/17,20 lyase; experiment: Inhibition of Spague-Dawley rat testicular microsome CYP17 using progesterone as substrate preincubated for 5 mins followed by enzyme addition measured after 20 mins in presence of NADPH; type: ADME, microsomes, Testis
[11] = biological target: T1, Steroid 17-alpha-hydroxylase/17,20 lyase; experiment: Inhibition of human recombinant CYP17A1 C17,20-lyase activity expressed in Escherichia coli using [1,2-3H]-17alpha-hydroxypregnenolone as substrate incubated for 15 mins; type: ADME
[12] = biological target: T2, Steroid 17-alpha-hydroxylase/17,20 lyase; experiment: Inhibiton of Sprague-Dawley rat testicular microsomal suspension CYP17A1 C17, 20 lyase activity using radiolabelled 17alpha-hydroxyprogesterone as substrate preincubated for 5 mins followed by enzyme addition incubated for 30 mins in presence of NADPH generating system; type: ADME, microsomes, Testis, Microsome
[13] = biological target: T2, Steroid 17-alpha-hydroxylase/17,20 lyase; experiment: Inhibiton of Sprague-Dawley rat testicular microsomal suspension CYP17A1 17-alpha hydroxylase activity using radiolabelled progesterone as substrate preincubated for 5 mins followed by enzyme addition incubated for 15 mins in presence of NADPH generating system; type: ADME, microsomes, Testis, Microsome
[14] = biological target: Cytochrome P450 3A4 (Homo sapiens, UniProt P08684); experiment: Inhibition of human recombinant CYP3A4; type: ADME
[15] = biological target: Cytochrome P450 2D6 (Homo sapiens, UniProt P10635); experiment: Inhibition of human recombinant CYP2D6; type: ADME
[16] = biological target: T1, Steroid 17-alpha-hydroxylase/17,20 lyase; experiment: Inhibition of human testis C17, 20 lyase activity using 17alpha-[1,2-3H] hydroxyprogesterone incubated for 30 mins in presence of NADPH generating system; type: tissue-based
[17] = biological target: T1, Steroid 17-alpha-hydroxylase/17,20 lyase; experiment: Inhibition of human testicular microsomal C17, 20 lyase activity using 17alpha-[1,2,6,7-3H] hydroxyprogesterone; type: microsomes, Testis, Microsome

Sequence of Cytochrome P450 2D6 (P10635 whole entry): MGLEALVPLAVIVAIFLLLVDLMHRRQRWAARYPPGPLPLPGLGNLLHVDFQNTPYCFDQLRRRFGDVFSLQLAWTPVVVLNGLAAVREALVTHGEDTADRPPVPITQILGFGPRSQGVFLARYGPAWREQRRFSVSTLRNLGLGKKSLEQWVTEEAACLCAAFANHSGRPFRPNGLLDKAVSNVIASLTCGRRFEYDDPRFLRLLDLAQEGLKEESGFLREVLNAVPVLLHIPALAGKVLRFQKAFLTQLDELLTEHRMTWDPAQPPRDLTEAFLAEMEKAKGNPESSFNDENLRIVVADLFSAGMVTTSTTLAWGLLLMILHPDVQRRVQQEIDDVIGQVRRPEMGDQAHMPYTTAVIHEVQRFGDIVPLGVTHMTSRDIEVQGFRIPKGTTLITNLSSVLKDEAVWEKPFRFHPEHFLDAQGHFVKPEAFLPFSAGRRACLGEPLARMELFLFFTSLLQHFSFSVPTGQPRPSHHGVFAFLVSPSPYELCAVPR
Sequence of Cytochrome P450 3A4 (P08684 whole entry): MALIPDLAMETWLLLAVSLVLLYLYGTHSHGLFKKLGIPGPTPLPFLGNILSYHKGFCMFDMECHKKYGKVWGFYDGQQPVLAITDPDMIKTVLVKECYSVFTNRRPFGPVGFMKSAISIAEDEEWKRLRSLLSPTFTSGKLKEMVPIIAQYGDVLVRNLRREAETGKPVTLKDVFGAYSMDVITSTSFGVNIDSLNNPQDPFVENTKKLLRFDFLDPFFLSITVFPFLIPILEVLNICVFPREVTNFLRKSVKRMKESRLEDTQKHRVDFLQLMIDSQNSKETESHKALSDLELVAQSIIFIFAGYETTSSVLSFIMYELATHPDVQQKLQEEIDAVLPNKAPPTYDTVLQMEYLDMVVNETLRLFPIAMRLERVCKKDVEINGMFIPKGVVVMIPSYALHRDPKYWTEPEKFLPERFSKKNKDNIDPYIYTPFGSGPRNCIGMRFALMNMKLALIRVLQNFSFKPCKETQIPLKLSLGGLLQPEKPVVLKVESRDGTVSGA

## c1ccc(-c2ccc(Cn3ccnc3)cc2)cc1
[1]
  IC50: 1000 nM

## Cc1c(/C=C/[C@H](C)c2c[nH]cn2)sc2ccc(F)cc12
[2]
  Ct: 2%
[3]
  IC50: 21 nM

## O=c1c(O)cc([C@H]2Oc3cc(O)cc(O)c3C[C@H]2O)cc2c([C@H]3Oc4cc(O)cc(O)c4C[C@H]3O)cc(O)c(O)c12 [THEAFLAVIN]
[4]
  IC50: 25000 nM

## O=C1c2cc(Cl)ccc2CCC1c1cccnc1 (stereo not given)
[5]
  Ki: 300 nM

## CC1=C(c2cccnc2)Cc2cc(Cl)ccc21
[5]
  Ki: 40 nM

## COc1ccc2c(c1)CCC(Cc1c[nH]cn1)C2 (stereo not given)
[6]
  IC50: 1000 nM

## CC(c1ccc(-c2ccc(F)cc2)cc1)n1ccnc1 (stereo not given)
[7]
  IC50: 240 nM
[8]
  IC50: 540 nM

## C(=C/c1cccc(Cn2ccnc2)c1)/c1ccccc1
[2]
  Ct: 135%
[9]
  IC50: 24 nM

## COc1cccc2c1CCC(c1ccncc1)C2=O (stereo not given)
[10]
  IC50: 13000 nM

## COc1ccc(-c2ccc([C@](O)(c3c[nH]cn3)C(C)C)cc2)cc1OC
[11]
  IC50: 11 nM

## Brc1ccc(CCCCCn2ccnc2)cc1
[12]
  IC50: 58 nM
[13]
  IC50: 500 nM

## c1cncc(Nc2ccc(-n3cnc4ccccc43)cc2)c1
[14]
  IC50: > 10000 nM
[15]
  IC50: > 10000 nM

## Clc1ccccc1C(c1cc2cc(Br)ccc2o1)n1ccnc1 (stereo not given)
[16]
  IC50: 4 nM

## C(=C\c1cccc(-n2ccnc2)c1)/c1ccccc1
[9]
  IC50: 230 nM

## Brc1cc(Br)c2oc(Cn3ccnc3)cc2c1
[17]
  IC50: 185 nM
